The values below come from article PMC5791972 (PLoS ONE, 2018).

SMILES strings stand for the structures. pIC50, pKi: −log10 of the molar value. Where “and” joins values, the source holds several entries; their conditions need not be identical. Identical values can stand only once.

Test [1] concerns the target T1, GR (h) (Homo sapiens, UniProt P04150).
T1 construct: IM-9 cells; host or cells: IM-9 cells (cytosol)
The test is classed as binding.

Test [2] concerns the target 5-HT4e (h) (Homo sapiens, UniProt Q13639).
Test [3] addresses 5-HT6 (h) (Homo sapiens, UniProt P50406).
The target in test [4] is 5-HT1B (Rattus norvegicus, UniProt P28564).
5-HT1B, sequence (P28564 whole entry): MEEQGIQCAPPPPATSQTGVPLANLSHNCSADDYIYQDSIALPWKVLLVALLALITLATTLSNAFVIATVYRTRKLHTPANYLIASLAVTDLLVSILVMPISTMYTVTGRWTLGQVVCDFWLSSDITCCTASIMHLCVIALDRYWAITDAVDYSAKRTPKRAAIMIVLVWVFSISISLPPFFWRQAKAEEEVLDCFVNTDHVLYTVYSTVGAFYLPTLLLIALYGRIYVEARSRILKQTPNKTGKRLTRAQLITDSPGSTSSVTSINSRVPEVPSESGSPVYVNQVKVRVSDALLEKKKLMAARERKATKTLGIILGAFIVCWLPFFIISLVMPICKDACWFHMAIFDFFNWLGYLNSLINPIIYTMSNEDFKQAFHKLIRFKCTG
Test [5] concerns NMRI mice. The test is classed as in vivo, mouse. The conditions noted are these: 8 mg/kg oral. The protocol: NMRI mice were habituated to their room for at least 2 to 3 weeks after the delivery and kept under standard conditions in groups of 4–5 animals per cage. Food and water were available ad libitum.
The tail suspension test was performed using with a BIOSEB system. In preparation for the experiment, a piece of tape (approx. 15 cm long) was wrapped around the end of the mouse tail approximately 2 mm before the tip. The tape was then attached to a holding device within the measuring unit at a height of approximately 30cm.
Movements of the animals were monitored and automatically evaluated by corresponding software. The duration of immobility during 6 min observation period was recorded. At the end of the experiment plasma samples were taken and the animals were sacrificed via isofluorane inhalation and subsequent decapitation.

Test [6] concerns the target T2, M5 (h) (Homo sapiens, UniProt P08912).
T2 construct: host or cells: CHO cells
T2 sequence (P08912 1-532): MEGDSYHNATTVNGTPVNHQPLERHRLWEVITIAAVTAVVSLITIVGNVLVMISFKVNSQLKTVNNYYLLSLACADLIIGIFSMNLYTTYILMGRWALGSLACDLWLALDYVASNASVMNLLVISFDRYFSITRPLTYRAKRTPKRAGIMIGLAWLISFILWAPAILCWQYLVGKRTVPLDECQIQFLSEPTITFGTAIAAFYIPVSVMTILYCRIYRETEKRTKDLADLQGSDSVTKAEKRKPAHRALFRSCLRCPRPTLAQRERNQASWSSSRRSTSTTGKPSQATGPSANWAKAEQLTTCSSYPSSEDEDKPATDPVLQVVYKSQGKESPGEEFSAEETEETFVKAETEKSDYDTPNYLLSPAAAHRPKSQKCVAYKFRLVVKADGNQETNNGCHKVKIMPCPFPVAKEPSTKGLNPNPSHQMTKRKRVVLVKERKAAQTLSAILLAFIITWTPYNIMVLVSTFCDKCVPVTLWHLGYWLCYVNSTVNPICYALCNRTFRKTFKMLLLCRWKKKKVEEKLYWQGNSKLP
Format: binding.

The target of test [7] is M3 (h) (Homo sapiens, UniProt P20309).
M3 (h), sequence (P20309 whole entry): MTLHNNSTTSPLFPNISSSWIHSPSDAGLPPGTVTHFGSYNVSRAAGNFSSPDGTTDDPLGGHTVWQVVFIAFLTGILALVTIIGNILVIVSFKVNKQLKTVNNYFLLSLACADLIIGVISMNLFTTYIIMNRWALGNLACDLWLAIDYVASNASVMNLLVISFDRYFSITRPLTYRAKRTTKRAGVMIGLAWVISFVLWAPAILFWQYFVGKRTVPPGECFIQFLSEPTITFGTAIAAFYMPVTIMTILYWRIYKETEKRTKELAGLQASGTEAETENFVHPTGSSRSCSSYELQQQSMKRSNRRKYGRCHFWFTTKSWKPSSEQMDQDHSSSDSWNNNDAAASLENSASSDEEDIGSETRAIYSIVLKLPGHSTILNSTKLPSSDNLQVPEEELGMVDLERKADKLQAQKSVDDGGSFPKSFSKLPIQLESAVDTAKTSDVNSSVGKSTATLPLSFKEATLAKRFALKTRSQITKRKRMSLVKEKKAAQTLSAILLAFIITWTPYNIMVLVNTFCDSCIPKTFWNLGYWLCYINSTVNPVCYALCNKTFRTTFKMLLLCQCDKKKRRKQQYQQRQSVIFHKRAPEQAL
The target in test [8] is T3, M4 (h) (Homo sapiens, UniProt P08173).
T3 sequence (P08173 1-479): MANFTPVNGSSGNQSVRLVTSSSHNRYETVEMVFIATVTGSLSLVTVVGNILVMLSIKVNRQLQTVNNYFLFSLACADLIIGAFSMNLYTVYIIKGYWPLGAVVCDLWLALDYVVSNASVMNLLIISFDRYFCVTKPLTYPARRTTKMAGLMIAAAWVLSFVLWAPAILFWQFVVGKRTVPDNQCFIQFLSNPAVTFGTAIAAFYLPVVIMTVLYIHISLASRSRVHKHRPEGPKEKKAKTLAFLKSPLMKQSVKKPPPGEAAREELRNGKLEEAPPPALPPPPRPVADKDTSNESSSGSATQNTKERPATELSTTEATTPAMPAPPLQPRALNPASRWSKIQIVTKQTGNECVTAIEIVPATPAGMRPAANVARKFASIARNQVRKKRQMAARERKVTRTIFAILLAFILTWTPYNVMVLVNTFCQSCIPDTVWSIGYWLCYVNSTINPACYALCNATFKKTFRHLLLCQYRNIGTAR

5-HT6 (h), sequence (P50406 whole entry): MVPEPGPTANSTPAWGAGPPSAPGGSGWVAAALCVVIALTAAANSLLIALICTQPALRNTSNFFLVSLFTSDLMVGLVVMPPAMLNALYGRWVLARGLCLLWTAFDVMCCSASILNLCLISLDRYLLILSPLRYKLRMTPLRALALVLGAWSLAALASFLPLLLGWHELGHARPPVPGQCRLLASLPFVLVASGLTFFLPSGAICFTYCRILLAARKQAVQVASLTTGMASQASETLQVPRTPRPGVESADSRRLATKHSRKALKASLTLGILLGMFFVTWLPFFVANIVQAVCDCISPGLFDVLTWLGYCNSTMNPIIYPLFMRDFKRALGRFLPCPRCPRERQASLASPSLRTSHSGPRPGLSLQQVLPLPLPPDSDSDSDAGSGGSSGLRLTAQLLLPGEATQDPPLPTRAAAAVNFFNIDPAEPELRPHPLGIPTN
T1 sequence (P04150 whole entry): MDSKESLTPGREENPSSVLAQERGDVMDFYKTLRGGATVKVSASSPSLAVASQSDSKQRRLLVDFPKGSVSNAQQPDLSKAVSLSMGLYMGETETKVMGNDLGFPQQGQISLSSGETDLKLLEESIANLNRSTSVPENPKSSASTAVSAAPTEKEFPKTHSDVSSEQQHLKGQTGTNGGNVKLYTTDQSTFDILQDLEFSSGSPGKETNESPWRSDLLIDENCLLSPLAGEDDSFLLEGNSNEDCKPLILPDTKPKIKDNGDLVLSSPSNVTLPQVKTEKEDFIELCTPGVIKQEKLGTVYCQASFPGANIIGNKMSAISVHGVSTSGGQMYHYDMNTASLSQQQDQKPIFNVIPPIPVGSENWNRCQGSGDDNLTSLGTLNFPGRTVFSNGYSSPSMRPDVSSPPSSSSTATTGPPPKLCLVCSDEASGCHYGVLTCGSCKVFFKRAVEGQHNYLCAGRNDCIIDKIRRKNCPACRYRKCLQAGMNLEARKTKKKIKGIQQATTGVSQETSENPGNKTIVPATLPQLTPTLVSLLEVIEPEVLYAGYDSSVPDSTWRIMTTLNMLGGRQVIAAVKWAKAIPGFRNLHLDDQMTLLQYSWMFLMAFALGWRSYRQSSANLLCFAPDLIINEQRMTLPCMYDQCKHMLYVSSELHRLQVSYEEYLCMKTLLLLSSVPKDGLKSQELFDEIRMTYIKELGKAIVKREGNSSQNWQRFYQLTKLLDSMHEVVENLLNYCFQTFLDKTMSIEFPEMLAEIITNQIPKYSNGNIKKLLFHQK
5-HT4e (h), sequence (Q13639 1-378 isoform Q13639-5): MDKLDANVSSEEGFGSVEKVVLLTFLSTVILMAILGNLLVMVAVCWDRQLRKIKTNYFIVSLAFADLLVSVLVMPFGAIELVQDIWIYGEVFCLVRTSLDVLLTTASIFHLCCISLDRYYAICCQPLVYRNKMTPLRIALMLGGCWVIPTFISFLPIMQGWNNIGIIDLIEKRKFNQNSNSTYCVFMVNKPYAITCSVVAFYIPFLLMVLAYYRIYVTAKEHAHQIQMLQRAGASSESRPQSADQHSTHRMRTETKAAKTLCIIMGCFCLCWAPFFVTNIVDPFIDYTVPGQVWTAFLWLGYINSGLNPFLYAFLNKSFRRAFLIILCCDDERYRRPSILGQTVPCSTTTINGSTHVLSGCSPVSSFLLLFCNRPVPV

`C[C@@H]1C[C@H]2[C@@H]3CCC4=CC(=O)C=C[C@]4(C)[C@@]3(F)[C@@H](O)C[C@]2(C)[C@@]1(O)C(=O)CO` [dexamethasone] had a nH in test [1] of 1.1.

Regarding `NCCc1c[nH]c2ccc(O)cc12` [serotonin], the values for the nH in test [2], in test [3] and in test [4] were 0.9, 1.0 and 0.7, respectively.

For `CNCCCN1c2ccccc2CCc2ccccc21` [desipramine, reference compound], the time of immobility result in test [5] is recorded as “reduced the time of immobility”.

Take `C[N+]1(C)CCC(OC(=O)C(c2ccccc2)c2ccccc2)CC1.[I-]` [4-DAMP, reference compound]: in test [6], the pIC50 (as a rule, the negative decadic logarithm of the IC50, by convention in mol/L) is 9.12 and 9.35; the pKi (usually the Ki on a negative log10 scale, so that one unit is a factor of ten) was 9.42 and 9.66; the nH was found to be 0.8. In test [7], this compound showed a nH of 1.2. The nH in test [8] came to 0.8.
